Measured values from US9387192B2, “Combination of rocaglamide and apoptosis inducing substances for the treatment of cancer” (DKFZ DEUTCHERS KREBSFORSCHUNGSZENTRUM, priority 2008, dated 2016).

How the values were obtained:
[1] = system: mouse leukemic RMA T cells; assay: Activation-induced apoptosis in RMA cells in vitro; type: cell-based
Description: (§1) The mouse lymphoma cell line RMA (van Hall et al., 2000), the human leukemic T cell lines DND-41 (contains a p53 mutation), Jurkat J16, Jurkat A3 and Jurkat A3 deficient in FADD (J-FADDdef) (purchased from American Type Culture Collection, ATCC, Manassas, USA) were cultured in RPMI 1640 medium (GIBCO laboratories, Grand Island, N.Y.) supplemented with 10% FCS, 50 μg/ml gentamicin (GIBCO), 6 mM HEPES (GIBCO, 1 M solution), and 2 mM L-glutamine (GIBCO, 200 mM solution) at 37° C. and 5% CO2. T cells were stimulated with either plate-bound αCD3 (OKT3 10 μg/ml) or PMA (5 ng/ml) plus ionomycin (0.5 μM).
(§2) Cells were plated in triplicates and treated for the indicated periods of time at 37° C. with different reagents as described in the figure legends. Rocaglamide derivatives used in this study were isolated from various Aglaia species to at least 98% purity determined by HPLC as reported previously (Schneider et al., 2000). The structures of the compounds were unequivocally elucidated based on their NMR and mass spectra as described before (Schneider et al., 2000). Apoptotic cell death was examined by two parameters: FSC/SSC index of apoptotic-like change in cell size and granularity by FACScan and by analysis of DNA fragmentation (Vermes et al., 2000).

[2] = cited from earlier work
[3] = Glutamate pyruvate transaminase (GPT) liver toxicity in mice; type: in vivo, mouse; details: RMA-grafted mice treated with Roc-Q, Con A or both; normal GPT below 50 U/l
Description: To examine the liver toxicity of Rocaglamide, the activities of GPT were determined from the heparinized blood of mice by test strips Reflotron® GPT as described by the instruction of the manufacture (Roche 10745138). The normal levels of GPT activity should be below 50 U/l.

[4] = system: RMA tumor; assay: RMA tumor graft in C57/BL6 mice; type: in vivo, mouse
Description: C57/BL6 mice were implanted subcutaneously in the right dorsal flank region with RMA (1×10^6 cells). One day after grafting, Roc-Q (1 mg/kg body weight, dissolved in DMSO and diluted in olive oil) was administered by intraperitoneal injection (i.p.) as indicated in the figure legend. The control group was treated in an analogous manner with the vehicle. The tumor size was measured with a micrometer caliper at the indicated times and the tumor volume (V) was calculated by the formula V=(a^2×b)/2, where “a” is the width and “b” is the length in mm (Mattern et al., 1998). All protocols using and maintaining animals were approved by the German Animal Protection Authority (Office Regierungspräsidium Karlsruhe). Treated and control animals were compared for differences in tumor growth after end of treatment using the non-parametric method in a one-sided statistical test at the significance level of 0.05 (Koziol et al., 1981).
To investigate whether the effect of Roc on activation-induced cell death is also occurred in vivo, RMA cells were grafted subcutaneously into the C57/BL6 mice. One day after xenografting, the mice were randomly separated into four groups (each group contains 5 mice). One group with no treatment was taken as a control, and the other three groups received Con A, Roc-Q, or a combination of Roc-Q and Con A, respectively, three times per week by intraperitoneal injection (i.p.). Two independent experiments were carried out. In the first experiment, RMA (10×10^5 cells)-grafted mice were treated with or without 1 mg/kg body weight of Roc-Q in the presence or absence of Con A as described in FIG. 4A. No toxicity was seen up to a dose of 10 mg/kg body weight (Lee et al., 1998). Acute toxicity was reported with an LD50 of >300 mg/kg (Umezawa et al., 1997). […] In this experiment, the control mice developed tumors after 9 days.

[5] = system: leukemia cell line Jurkat; assay: Apoptosis (FSC/SSC) in Jurkat with TNFα or TRAIL; type: cell-based; details: 24 h
Description: (§3) Pancreatic carcinoma cell lines MiaPaca and Capan-1 were treated with Roc-A (50 nM) in combination with different doses of anticancer reagents for 48 h. Apoptotic cell death was determined by Nicoletti (DNA-fragmentation). The leukemia cell line Jurkat was treated with either TNFα (20 ng/ml) or TRAIL (2 ng/ml) in combination with different doses of rocaglamide as indicated for 24 h. Apoptotic cell death was determined by FSC/SSC.

[6] = system: Capan-1 pancreatic carcinoma cell line; assay: Apoptosis (Nicoletti) in Capan-1 with anticancer reagents; type: cell-based; details: Capan-1, Roc-A 50 nM with different doses of anticancer reagents, 48 h
Description: as §3

[7] = system: normal peripheral blood T cells; assay: Activation-induced cell death in normal peripheral blood T cells (day 0, day 6); type: cell-based, human
Description: Human peripheral T cells were prepared as described previously (Klas et al., 1993) and were more than 90% CD3 positive. For activation, resting T cells (day 0) were cultured at 2×10^6 cells/ml with 1 μg/ml PHA for 16 h (day 1). Day 1 T cells were then washed three times and cultured for an additional 5 days in the presence of 25 U/ml IL-2 (day 6).
as §2

[8] = system: MiaPaca pancreatic carcinoma cell line; assay: Apoptosis (Nicoletti) in MiaPaca with anticancer reagents; type: cell-based; details: Roc-A 50 nM with different doses of anticancer reagents, 48 h
Description: as §3

[9] = system: human leukemic DND-41 T cells (p53 mutation); assay: Apoptosis in DND-41 T cells; type: cell-based
Description: as §1, §2

[10] = system: human leukemic Jurkat T cells; assay: Apoptosis (FSC/SSC, DNA fragmentation) in Jurkat T cells; type: cell-based
Description: as §1, §2

[11] = system: caspase-8, -9, -3, Bid, PARP; assay: Western blot of apoptotic pathway proteins in Jurkat T cells; type: cell-based, human; details: 24 h
Description: 1×10^6 cells were sedimented and lysed for 15 min in ice-cold lyses buffer (29 mM Tris-HCl, pH 7.4, 137 mM NaCl, 10% (w/v) Glycerin, 1% (v/v) Triton X-100, 2 mM EDTA, 1 mM PMSF, 0.4 mM […], 10 mM NaF, complete protease inhibitor cocktail, Roche). After removing the cell debris by centrifugation at 13,000 rpm for 15 min, equal amounts of proteins were separated on a 12% SDS-PAGE, blotted onto a nitrocellulose membrane (Amersham Biosciences, Little Chalfon, UK) and blocked with 5% non-fat drymilk in PBS/Tween (0.05% Tween-20 in PBS). […]

[12] = system: Hodgkin lymphoma cell line KM-H2; assay: Apoptosis (DNA fragmentation) in KM-H2 cells; type: cell-based, human; details: KM-H2, TRAIL alone, different concentrations, 48 h
Description: (§4) The human malignant cell lines used in this study are: the human leukemic T cell lines CEM and Jurkat (J16), the HTLV-1 ATL derived cell lines SP, MT-2, CHAMP, and ATL-3, and Hodgkin lymphoma derived cell lines L1236 and KM-H2. Human peripheral blood T cells were prepared as described previously (Zhu et al., 2009) and were more than 90% CD3 positive. All cells were cultured in RPMI 1640 medium (GIBCO laboratories, Grand Island, N.Y.) supplemented with 10% FCS, 50 μg/ml gentamicin (GIBCO), 6 mM HEPES (GIBCO, 1 M solution), and 2 mM L-glutamine (GIBCO, 200 mM solution) at 37° C. and 5% CO2.
(§5) Cells were plated in triplicates and treated for the indicated periods of time at 37° C. with different doses of Rocaglamide AR (Roc-AR) (>98% pure, assessed by HPLC) (Proksch et al., 2005), Superkiller-TRAIL (Alexis) or LZ-CD95L (Walczak et al., 1999) alone, or in combinations as indicated in figures. Apoptotic cell death was determined by analysis of DNA fragmentation (% DNA fragmentation) as previously described (Krueger et al., 2006). Specific apoptosis was calculated as (percentage of experimental apoptosis−percentage of spontaneous apoptosis)/(100−percentage of spontaneous apoptosis)×100.

[13] = system: HTLV-1-associated ATL cell lines SP, MT-2, ATL-3 and CHAMP; assay: Apoptosis (DNA fragmentation) in HTLV-1-associated ATL cell lines; type: cell-based, human; details: HTLV-1-infected ATL cell lines, TRAIL alone, different concentrations
Description: as §4, §5

[14] = system: Hodgkin lymphoma cell line L1236; assay: Apoptosis (DNA fragmentation) in L1236 cells; type: cell-based, human; details: L1236, TRAIL alone, different concentrations, 48 h
Description: as §4, §5

CNC(=O)C1C(O)C2(O)c3c(OC)cc(OC)cc3OC2(c2ccc(OC)cc2)C1c1ccccc1 (centres unmarked) [Roc-Q]
PMA/ionomycin- or Con A-stimulation induced cell death [1]: enhanced | dose up to which no toxicity was seen ([2]; Lee et al., 1998): ≤ 10 mg/kg body weight | acute toxicity LD50 ([2]; Umezawa et al., 1997): > 300 mg/kg | liver toxicity (GPT activity) [3]: No liver toxicity | tumor size and tumor growth rate ([4]; first experiment, 10×10^5 RMA cells, single agent only (Roc-Q 1 mg/kg or Con A 5 mg/kg) i.p. three times per week): No significant changes in tumor size and tumor growth rate | tumor growth ([4]; first experiment, Roc-Q 1 mg/kg combined with Con A 5 mg/kg i.p.): delayed tumor growth | tumor size ([4]; first experiment, Roc-Q 1 mg/kg combined with Con A 5 mg/kg i.p., final day): reduced tumor sizes | body weight loss ([4]; mice after treatment with Roc-Q, Con A or both): no body weight loss | tumor growth ([4]; second experiment, 2.5×10^5 RMA cells, single agent only (Roc-Q 2.5 mg/kg or Con A 5 mg/kg) i.p.): Significantly delayed tumor growth | tumor progression and tumor growth ([4]; second experiment, Roc-Q 2.5 mg/kg combined with Con A 5 mg/kg, except for one mouse): further inhibition | tumor size and tumor weight ([4]; second experiment, Roc-Q alone 2.5 mg/kg): reduced tumor sizes and tumor weight

COc1ccc([C@@]23Oc4cc(OC)cc(OC)c4[C@]2(O)[C@H](O)[C@H](C(=O)N(C)C)[C@H]3c2ccccc2)cc1 [rocaglamide]
apoptotic cell death ([5]; TNFα 20 ng/ml with different doses of rocaglamide): synergistically increased the apoptic cell death | apoptotic cell death ([5]; TRAIL 2 ng/ml with different doses of rocaglamide): synergistically increased the apoptic cell death

Roc-A
apoptotic cell death [6]: synergistically increased the apoptic cell death | toxicity ([7]; day 0 (resting) T cells, Roc-A alone 50 nM, 48 h): no toxicity | cell death ([7]; day 0 T cells, Roc-A 50 nM with PMA/ionomycin, 48 h): did not increase cell death | PMA/ionomycin-induced cell death ([7]; day 6 (pre-activated) T cells re-stimulated with PMA/ionomycin, Roc-A 50 nM): did not further enhance PMA/ionomycin-induced cell death | apoptotic cell death [8]: synergistically increased the apoptic cell death | PMA/ionomycin- or Con A-stimulation induced cell death [1]: enhanced | cell death compared to Jurkat T cells ([9]; DND-41, Roc-A alone): more resistant | apoptotic cell death ([9]; DND-41, combination of Roc-A and PMA/ionomycin stimulation): dramatic increase in apoptotic cell death | apoptotic cell death ([10]; Jurkat T cells stimulated with αCD3 or PMA/ionomycin in the presence of Roc-A): dose-dependent increase in apoptotic cell death | apoptotic cell death ([10]; Jurkat, Roc-A 50 nM combined with anti-CD95 antibody αAPO-1, 24 h): enhanced apoptotic cell death | apoptotic cell death ([10]; Jurkat, Roc-A 50 nM combined with recombinant LZ-CD95L, 24 h): enhanced apoptotic cell death | caspase and PARP cleavage (Western blot) ([11]; Roc-A alone): activation of caspase-9 and generation of a detectable amount of the active p17 caspase-3 product and weak PARP cleavage | cleavage of caspase-8 (Western blot) ([11]; Roc-A with T-cell stimulation (PMA/ionomycin)): strongly increased cleavages of caspase-8

TRAIL
TRAIL-mediated apoptosis [12]: completely resistant | TRAIL-induced apoptosis [13]: resistant to TRAIL-induced apoptosis | TRAIL-mediated apoptosis [14]: completely resistant
